The record followed here is ChEMBL document CHEMBL5126544, “Recent results from non-basic glycosidase inhibitors: How structural diversity can inform general strategies for improving inhibition potency” (Eur J Med Chem, 2022).

Each structure is given as a SMILES string.

Biological target in one assay: not listed separately
The experiment in a line: Inhibition of Bacillus stearothermophilus alpha-glucosidase type IV using p-nitrophenyl-alpha-D-glucopyranoside as substrate preincubated for 15 mins followed by substrate addition and measured after 35 mins by microtiter plate reader analysis. More on the design: species or system Geobacillus stearothermophilus.
Conditions: not given
`Oc1ccc(/C=C/c2cc(O)cc3c2[C@H](c2cc(O)cc(O)c2)[C@@H](c2ccc(O)c(O)c2)O3)cc1` [SCIRPUSIN A]: the half-inhibitory concentration (IC50) stood at 8.3 µM.
The molecule `Oc1cc(O)cc(/C=C/c2ccc(O)c(O)c2)c1` [PICEATANNOL] came in with an IC50 of 23 µM.
In turn, `Oc1cc(O)cc(/C=C/c2cc(O)c(O)c3c2[C@H](c2cc(O)cc(O)c2)[C@@H](c2cc(O)c(O)c(O)c2)O3)c1` displayed an IC50 of 4.9 µM.
Same read-out and setting: under `Oc1ccc(/C=C/c2cc(O)cc(O)c2)cc1` [RESVERATROL] stands 24 µM; under `Oc1cc(O)cc(/C=C/c2cc(O)c(O)c(O)c2)c1`, 19 µM.
`COc1cc([C@@H]2c3c(O)cc(O)cc3[C@@H]3[C@H]2CO[C@H]3c2ccc(O)c(O)c2)cc(OC)c1O` registered an IC50 of 11 µM.
The same measure, in the same setting: under `COc1cc([C@@H]2c3c(O)cc(O)cc3[C@@H]3[C@H]2CO[C@H]3c2cc(O)c(O)c(O)c2)cc(OC)c1O` stands 6.5 µM.

Biological target in a further assay: not listed separately
The experiment in a line: Inhibition of saccharomyces cerevisiae alpha-glucosidase using PNPG as substrate preincubated for 2 mins followed by substrate addition for 15 mins by microplate reader analysis.
Conditions: not given
For `C/C(=C\O)[C@@H]1OC(=O)[C@H]2O[C@@]23[C@@]1(C)CC[C@@H]1[C@@]2(CCC(=O)[C@]13C)COC(=O)C[C@@H]2O`, the IC50 is 102 µM.
As for `C/C=C(\C)C(=O)NCCc1ccc(OCC=C(C)C)cc1`, the IC50 came out at 195 µM.
`COC(=O)/C=C/c1ccc(OCC=C(C)C)c(OC)c1` returned an IC50 of 98 µM.
In the case of `COc1cc2ccc(=O)oc2cc1O` [SCOPOLETIN], the midpoint of inhibition, the IC50, lay at 4.6 µM.

Biological target in another assay: not listed separately
The experiment in a line: Inhibition of saccharomyces cerevisiae alpha-glucosidase using PNP-G as substrate incubated for 20 mins.
Conditions: not given
On to `CC1(C)O[C@H]2Cc3c(O)cc(O)cc3O[C@@H]2c2cc(O)c(O)cc21`, for which the IC50 was determined as 1.2 µM.
The same measure, in the same setting: the result for `CCCCCCC1(CCCCCC)O[C@H]2Cc3c(O)cc(O)cc3O[C@@H]2c2cc(O)c(O)cc21` reads 0.9 µM.
In turn, `CCCCC1(CCCC)O[C@H]2Cc3c(O)cc(O)cc3O[C@@H]2c2cc(O)c(O)cc21` showed a half-maximal inhibitory concentration (IC50) of 2.1 µM.

The species entered for a further assay is Homo sapiens. Briefly: Potency index, ratio of acarbose IC50 to test compound IC50 for inhibition of alpha-glucosidase (unknown origin) using PNP glycoside as substrate preincubated for 30 mins followed by substrate addition and measured after 60 mins by spectrophotometric analysis. The conditions noted are these: time 90.0 min.
In the case of `Oc1ccc(-c2nc3ccc(Br)cc3[nH]2)cc1`, the Ratio IC50 came to 5.

Biological target in the next assay: not listed separately
Briefly: Inhibition of alpha-glucosidase (unknown origin) using p-nitrophenyl-alpha-D-glucopyranoside as substrate preincubated for 10 mins followed by substrate addition and measured after 30 mins.
Conditions: not given
Turning to `O=C1c2c(Cl)c(Cl)c(Cl)c(Cl)c2C(=O)N1CCCCc1ccccc1`, the IC50 was found to be 2 µM.
Consider `O=C1c2c(Cl)c(Cl)c(Cl)c(Cl)c2C(=O)N1CCCCCc1ccccc1`, for which the midpoint of inhibition, the IC50, lay at 3.5 µM.
Still for that read-out and setting: the result for `O=C1c2c(Cl)c(Cl)c(Cl)c(Cl)c2C(=O)N1Cc1ccccc1` reads 11 µM; that for `O=C1c2c(Cl)c(Cl)c(Cl)c(Cl)c2C(=O)N1CCc1ccccc1`, 6 µM.
`O=C1c2c(Cl)c(Cl)c(Cl)c(Cl)c2C(=O)N1CCCc1ccccc1` showed a half-maximal inhibitory concentration (IC50) of 4.5 µM.
`O=C1c2c(Cl)c(Cl)c(Cl)c(Cl)c2C(=O)N1CCCCCCc1ccccc1` had an IC50 of 7 µM.

Biological target in another assay: not listed separately
Briefly: Inhibition of baker's yeast alpha-glucosidase using PNPG as substrate preincubated for 10 mins followed by substrate addition and measured after 30 mins by microplate reader analysis.
Conditions: not given
More on the design: species or system Saccharomyces cerevisiae.
On to `Cc1cc2nc(-c3ccc(C(=O)N/N=C/c4cc(O)ccc4O)cc3)[nH]c2cc1C`, for which it took 8 µM to reach half-maximal inhibition (IC50).
The same measure, in the same setting: the result for `Cc1cc2nc(-c3ccc(C(=O)N/N=C/c4cccc(O)c4O)cc3)[nH]c2cc1C` reads 8 µM; that for `COc1ccc(O)cc1/C=N/NC(=O)c1ccc(-c2nc3cc(C)c(C)cc3[nH]2)cc1`, 8 µM.
Molecule `Cc1cc2nc(-c3ccc(C(=O)N/N=C/c4ccc(O)cc4O)cc3)[nH]c2cc1C` displayed an IC50 of 8 µM.
For the molecule `Cc1cc2nc(-c3ccc(C(=O)N/N=C/c4cc(O)c(O)c(O)c4)cc3)[nH]c2cc1C`, the IC50 worked out at 8 µM.
In turn, `Cc1cc2nc(-c3ccc(C(=O)N/N=C/c4ccc(O)c(O)c4)cc3)[nH]c2cc1C` gave an IC50 of 12 µM.
In turn, `COc1ccc(/C=N/NC(=O)c2ccc(-c3nc4cc(C)c(C)cc4[nH]3)cc2)c(O)c1` came in with a concentration for half-maximal inhibition (IC50) of 8 µM.

Biological target in another assay: not listed separately
The experiment in a line: Inhibition of Caldocellum-saccharolyticum […] using 4-nitrophenyl beta-d-glucopyranoside preincubated for 30 to 60 mins followed by substrate addition. More on the design: species or system Caldicellulosiruptor saccharolyticus.
Conditions: not given
As for `OC[C@@H]1[C@@H](O)[C@H](O)[C@@H](O)c2nc(CCc3ccccc3)cn21`, the Ki turned out to be 0.00011 µM.
Same read-out and setting: the result for `OC[C@@H]1[C@@H](O)[C@H](O)[C@@H](O)c2nccn21` reads 0.02 µM.

Biological target in the next assay: not listed separately
The experiment in a line: Inhibition of baker's yeast alpha-glucosidase using PNP-G as substrate preincubated for 10 mins followed by substrate addition and measured after 20 mins. More on the design: species or system Saccharomyces cerevisiae.
Conditions: not given
As to `CCOC(=O)/C=C/c1ccc(OC)cc1` [4-METHOXY ETHYL CINNAMATE], inhibition was half-maximal at 50 µM (IC50).
The molecule `COc1ccc(/C=C/C(=O)O)cc1` [4-METHOXYCINNAMIC ACID] displayed an IC50 of 44 µM.

Biological target in another assay: not listed separately
The experiment in a line: Inhibition of alpha-amyloglucosidase (unknown origin) assessed as reduction in conversion of starch to glucose using starch as substrate preincubated with substrate for 20 mins followed by enzyme addition and measured after 30 mins.
Conditions: not given
Consider `Cn1c(NCc2ccc(CC3SC(=O)NC3=O)cc2)nc2ccccc21` (stereo not drawn), for which the IC50 came to 9 µM.
Same read-out and setting: the result for `O=C1NC(=O)C(Cc2ccc(CNc3nc4ccccc4n3Cc3ccccc3)cc2)S1` (stereo not drawn) reads 5 µM; that for `Cn1c(Nc2ccc(CC3SC(=O)NC3=O)cc2)nc2ccccc21` (stereo not drawn), 9 µM.
Same read-out and setting: under `O=C1NC(=O)C(Cc2ccc(Nc3nc4ccccc4n3Cc3ccccc3)cc2)S1` (stereo not drawn) stands 4 µM.

Biological target in the next assay: not listed separately
Briefly: Inhibition of saccharomyces cerevisiae alpha-glucosidase using pNPG as substrate preincubated for 15 mins followed by substrate addition.
Conditions: not given
Turning to `COc1ccc(-c2nc3cccc(C)c3[nH]2)c(O)c1`, the 50% inhibitory concentration (IC50) was 30 µM.
The same measure, in the same setting: under `Cc1cccc2nc(-c3ccccc3[N+](=O)[O-])[nH]c12` stands 45 µM; under `COc1ccc(O)c(-c2nc3cccc(C)c3[nH]2)c1`, 45 µM; under `Cc1cccc2nc(-c3ccc(O)c(O)c3)[nH]c12`, 25 µM.
Same read-out and setting: under `Cc1cccc2nc(-c3ccccc3O)[nH]c12` stands 16 µM.
The molecule `Cc1cccc2nc(-c3ccccc3Cl)[nH]c12` registered an IC50 of 5 µM.
As for `Cc1cccc2nc(-c3ccccc3F)[nH]c12`, the IC50 amounted to 34 µM.

Biological target in the next assay: not listed separately
The experiment in a line: Inhibition of beta glucosidase (unknown origin). More on the design: species or system Homo sapiens.
Conditions: not given
In the case of `O[C@H]1[C@@H](O)Cn2ccnc2[C@@H]1O`, the inhibition constant (Ki) came out at 0.001 µM.
With `O[C@H]1[C@@H](O)Cn2cc(CCc3ccccc3)nc2[C@@H]1O`, the affinity, expressed as Ki, was 0.004 µM.

Tested on in the next assay: not listed separately
Briefly: Inhibition of recombinant Streptococcus pneumoniae NanB using MUNANA as substrate.
Conditions: not given
Take `O=S(=O)(O)CCNCc1cccc(Cl)c1`: the 50% inhibitory concentration (IC50) worked out at 39 µM.
Take `Cc1cccc(CNCCS(=O)(=O)O)c1`: the IC50 came out at 57 µM.

Biological target in the next assay: not listed separately
Briefly: Inhibition of alpha-glucosidase (unknown origin) using PNP glycoside as substrate preincubated for 30 mins followed by substrate addition and measured after 60 mins by spectrophotometric analysis.
Conditions: not given
Molecule `COc1ccc(-c2nc3ccc(Br)cc3[nH]2)c(O)c1` yielded an IC50 of 38 µM.
Molecule `Oc1ccc(-c2nc3ccc(Br)cc3[nH]2)cc1` registered an IC50 of 8 µM.
Same read-out and setting: the result for `Brc1cccc(-c2nc3ccc(Br)cc3[nH]2)c1` reads 21 µM.
Still for that read-out and setting: under `Oc1ccccc1-c1nc2ccc(Br)cc2[nH]1` stands 38 µM.
Still for that read-out and setting: the result for `CCCCOc1ccc(-c2nc3ccc(Br)cc3[nH]2)cc1` reads 25 µM.

Biological target in the next assay: not listed separately
Briefly: Inhibition of baker's yeast alpha-glucosidase using p-nitrophenyl-alpha-glucopyranoside as substrate by spectrophotometric analysis. More on the design: species or system Saccharomyces cerevisiae.
Conditions: not given
Molecule `CC(=O)NC[C@H]1N[C@H](CO)[C@@H](O)[C@@H]1O` returned an IC50 of 280 µM.
`O=C(NC[C@H]1N[C@H](CO)[C@@H](O)[C@@H]1O)C1Cc2ccccc21` (stereo partly drawn) returned an IC50 of 0.15 µM and a Ki of 0.053 µM.

Biological target in another assay: not listed separately
The experiment in a line: Inhibition of human alpha-fucosidase.
Conditions: not given
`CC(=O)NC[C@H]1N[C@@H](C)[C@@H](O)[C@@H](O)[C@@H]1O` showed a Ki of 0.00447 µM.
Same read-out and setting: under `C[C@@H]1N[C@H](CNC(=O)CCc2c[nH]c3ccccc23)[C@@H](O)[C@H](O)[C@@H]1O` stands 0.000105 µM.

Biological target in the next assay: not listed separately
The experiment in a line: Inhibition of saccharomyces cerevisiae alpha-glucosidase using p-nitrophenyl-alpha-D-glucopyranoside as substrate preincubated for 15 mins followed by substrate addition and measured after 20 mins by spectrophotometric analysis.
Conditions: not given
On to `O=[N+]([O-])c1ccc2nc(Cc3ccc(Cl)cc3Cl)n(Cc3nnc(S)o3)c2c1`, for which it took 27 µM to reach half-maximal inhibition (IC50).
The same measure, in the same setting: the result for `O=[N+]([O-])c1ccc2nc(Cc3ccc(Cl)cc3Cl)n(Cc3nnc(S)n3-c3ccccc3)c2c1` reads 40 µM; that for `NNC(=O)Cn1c(Cc2ccc(Cl)cc2Cl)nc2ccc([N+](=O)[O-])cc21`, 10 µM.

Biological target in the next assay: not listed separately
Briefly: Inhibition of rat intestinal maltase.
Conditions: not given
`O=[N+]([O-])c1ccccc1CO[C@@H](CO)[C@H](O)C[S+]1C[C@@H](O)[C@H](O)[C@H]1CO` (single isomer, unassigned) showed an IC50 of 0.042 µM.
For `OC[C@@H]1[C@@H](O)[C@H](O)C[S@@+]1C[C@@H](O)[C@@H](O)CO`, the IC50 was 1.6 µM.

Biological target in another assay: not listed separately
Briefly: Inhibition of Bacillus stearothermophilus alpha-glucosidase using PNP-G as substrate incubated for 20 mins.
Conditions: not given
More on the design: species or system Geobacillus stearothermophilus.
In turn, `CC1(C)O[C@H]2Cc3c(O)cc(O)cc3O[C@@H]2c2cc(O)c(O)cc21` had a 50% inhibitory concentration (IC50) of 0.7 µM.
The same measure, in the same setting: the result for `CCCCCCC1(CCCCCC)O[C@H]2Cc3c(O)cc(O)cc3O[C@@H]2c2cc(O)c(O)cc21` reads 1.1 µM.

Biological target in another assay: not listed separately
The experiment in a line: Inhibition of yeast alpha-glucosidase. More on the design: species or system Saccharomyces cerevisiae.
Conditions: not given
The molecule `O=c1c(-c2ccc(O)cc2)coc2cc(O)cc(O)c12` [GENISTEIN] came in with a 50% inhibitory concentration (IC50) of 10.4 µM.
On the same count and under the same terms, under `OC[C@H]1OC(O)[C@H](O)[C@@H](O)[C@@H]1O` (stereo partly drawn) [DEXTROSE] stands 2.6 µM.

Another assay concerns Rattus norvegicus. Briefly: Hypoglycemic activity in Wistar rat assessed as reduction in postprandial blood glucose level at 10 mg/kg, po administered for 10 mins followed by sucrose challenge and measured after 30 mins post oral sucrose challenge. More on the design: scale not given: the % may be the effect or the level left. The conditions noted are these: time 40 min. It counts as functional.
With `Oc1cc(O)cc(/C=C/c2cc(O)c(O)c(O)c2)c1`, the Activity stood at 12.1%.
Regarding `COc1cc([C@@H]2c3c(O)cc(O)cc3[C@@H]3[C@H]2CO[C@H]3c2ccc(O)c(O)c2)cc(OC)c1O`, the Activity came out at 10.2%.

As usually defined, the IC50 is the concentration needed to halve the response being measured. The Ki is a dissociation constant, usually derived from enzyme kinetics or from competition with a known ligand.
